Data set [1] in a line: Inhibition of beta3 tubulin overexpressed in human HeLa cells after 48 hrs by SRB assay. For orientation: In SRB staining, fixed cells bind dye roughly in proportion to their protein.
Data set [2] is described as follows: Inhibition of p-gp overexpressed in human SKOV3/M6-6 isogenic cells after 48 hrs by sulforhodamine B assay.

Each structure is given as a SMILES string.

What is called IC50 is the concentration that gives 50% inhibition. The low end stands for higher potency, the high end for lower potency. For `COc1ccc(N(C)c2nc(C)nc3c2CCC3)cc1`, the IC50 in data set [1] was found to be 8.2 nM; in data set [2], 16 nM.

As for `COc1ccc(N(C)c2nc(C)nc3c2CC(C)C3)cc1` (stereo not given), the IC50 was found to be 24 nM in data set [1] and 44 nM in data set [2].

In data set [2], `COc1ccc(/C=C\c2cc(OC)c(OC)c(OC)c2)cc1O` [combretastin A4] registered an IC50 of 6.6 nM.

The values above are taken from BindingDB's records for doi:10.1021/jm400639z (Duquesne University, 2013).
